Measurements as given in patent US12441733B2, “Substituted 2,4-dioxotetrahydropyrimidines as intermediates in the synthesis of bruton's tyrosine kinase inhibitors” (Novartis AG, priority 2018, dated 2025).

Assays:
Assay type in all cases: cell-based
BTK-GFP = target: T1, BTK-GFP (Homo sapiens, UniProt Q06187+Q96SW2); assay: BTK-GFP protein abundance flow cytometry assay in HEK293A cells; conditions: HEK293A BTK-GFP-iresRFP cells, 24 h; for DC50: GFP signal by flow cytometry, concentration at which 50% maximal degradation was observed; for BTK deg Amax: % protein remaining at the concentration at which maximum degradation is seen
T1 construct: expressed in transfected cells; host or cells: HEK293A (Invitrogen R70507), lentiviral transduction with pLenti6-BTK-GFP-Ires-RFP, blasticidin selection
T1 sequence (Q06187 whole entry): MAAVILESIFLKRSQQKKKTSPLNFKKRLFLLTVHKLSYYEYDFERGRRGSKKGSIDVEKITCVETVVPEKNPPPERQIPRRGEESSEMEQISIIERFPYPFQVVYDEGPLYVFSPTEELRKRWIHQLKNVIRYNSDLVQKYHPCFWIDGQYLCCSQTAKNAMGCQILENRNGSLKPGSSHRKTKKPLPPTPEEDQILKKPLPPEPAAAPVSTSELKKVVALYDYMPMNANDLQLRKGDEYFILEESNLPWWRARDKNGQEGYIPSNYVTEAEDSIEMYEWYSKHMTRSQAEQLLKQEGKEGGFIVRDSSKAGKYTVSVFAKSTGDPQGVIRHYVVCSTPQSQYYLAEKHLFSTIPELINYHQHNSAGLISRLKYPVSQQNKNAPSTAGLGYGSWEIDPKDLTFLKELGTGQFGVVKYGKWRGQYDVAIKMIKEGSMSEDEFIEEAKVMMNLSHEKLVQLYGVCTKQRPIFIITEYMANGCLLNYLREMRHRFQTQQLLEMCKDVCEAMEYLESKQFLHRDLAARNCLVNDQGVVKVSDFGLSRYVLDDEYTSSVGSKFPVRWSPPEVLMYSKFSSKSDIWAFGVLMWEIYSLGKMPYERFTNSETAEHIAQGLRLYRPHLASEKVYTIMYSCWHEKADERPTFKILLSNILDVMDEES
T1 sequence (Q96SW2 whole entry): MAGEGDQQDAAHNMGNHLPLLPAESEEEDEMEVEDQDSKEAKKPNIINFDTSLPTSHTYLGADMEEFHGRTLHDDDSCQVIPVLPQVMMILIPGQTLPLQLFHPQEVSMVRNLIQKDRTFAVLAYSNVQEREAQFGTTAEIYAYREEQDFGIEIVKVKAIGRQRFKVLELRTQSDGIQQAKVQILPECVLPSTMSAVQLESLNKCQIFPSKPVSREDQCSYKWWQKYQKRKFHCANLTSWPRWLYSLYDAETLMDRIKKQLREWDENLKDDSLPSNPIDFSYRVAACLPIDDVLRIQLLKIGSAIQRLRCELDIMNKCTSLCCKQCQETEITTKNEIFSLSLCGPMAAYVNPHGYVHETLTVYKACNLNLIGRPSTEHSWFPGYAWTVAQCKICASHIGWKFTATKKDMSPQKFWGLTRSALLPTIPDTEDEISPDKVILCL
T1 sequence (Q16531 whole entry partner): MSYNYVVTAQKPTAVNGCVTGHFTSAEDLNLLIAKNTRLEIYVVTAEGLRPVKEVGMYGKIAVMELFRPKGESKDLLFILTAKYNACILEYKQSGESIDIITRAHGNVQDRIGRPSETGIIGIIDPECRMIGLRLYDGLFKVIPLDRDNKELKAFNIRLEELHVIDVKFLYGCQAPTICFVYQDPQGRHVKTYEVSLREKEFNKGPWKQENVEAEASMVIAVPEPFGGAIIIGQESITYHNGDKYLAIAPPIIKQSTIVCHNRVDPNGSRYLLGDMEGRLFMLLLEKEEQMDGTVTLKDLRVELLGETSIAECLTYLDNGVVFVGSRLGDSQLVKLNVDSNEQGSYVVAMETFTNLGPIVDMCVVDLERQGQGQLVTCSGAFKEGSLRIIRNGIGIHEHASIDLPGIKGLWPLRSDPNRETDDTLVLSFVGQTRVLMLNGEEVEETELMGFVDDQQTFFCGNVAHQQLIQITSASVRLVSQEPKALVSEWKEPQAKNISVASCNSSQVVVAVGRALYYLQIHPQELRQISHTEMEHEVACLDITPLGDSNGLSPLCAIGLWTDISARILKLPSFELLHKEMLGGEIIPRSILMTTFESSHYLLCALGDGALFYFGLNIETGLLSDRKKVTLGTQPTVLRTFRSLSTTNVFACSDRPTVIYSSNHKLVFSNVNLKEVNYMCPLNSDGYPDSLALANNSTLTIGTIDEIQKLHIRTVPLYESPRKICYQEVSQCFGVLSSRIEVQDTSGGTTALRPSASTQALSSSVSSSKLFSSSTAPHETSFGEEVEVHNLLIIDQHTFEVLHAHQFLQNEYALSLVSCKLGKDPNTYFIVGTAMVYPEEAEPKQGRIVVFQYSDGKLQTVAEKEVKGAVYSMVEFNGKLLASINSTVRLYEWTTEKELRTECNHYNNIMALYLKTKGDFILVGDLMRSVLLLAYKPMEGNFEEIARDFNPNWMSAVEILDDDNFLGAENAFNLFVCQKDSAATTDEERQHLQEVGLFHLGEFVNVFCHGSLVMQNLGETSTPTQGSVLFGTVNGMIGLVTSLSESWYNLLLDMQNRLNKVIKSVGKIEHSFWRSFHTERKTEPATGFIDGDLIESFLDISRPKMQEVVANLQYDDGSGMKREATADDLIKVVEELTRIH
Description: (§1) Compounds of the invention were tested in the following cellular assays. The terms in Table 2 are defined as follows: DC50 refers to the concentration at which 50% maximal degradation was observed; deg Amax is the extent of degradation and the value refers to the % protein remaining at the concentration at which maximum degradation is seen; ProI GI50 refers to the proliferation data and defines the concentration at which 50% growth inhibition was observed compared to the vehicle treated control at the end of the incubation time. TMD8 cells are BTK dependent and OCI-LY3 cells are BTK independent.
BTK-GFP and IKZF3-GFP protein abundance flow cytometry assay in HEK293A cells:
Degradation of BTK or IKZF3 was measured in HEK293A cells (Invitrogen R70507) expressing either BTK-GFP and RFP or IKZF3-GFP and RFP from a stably integrated bicistronic BTK-GFP-iresRFP or IKZF3-GFP-iresRFP construct, respectively. Reduction of the GFP signal measured by flow cytometry served as readout for BTK or IKZF3 degradation after degrader treatment.
i) Cloning of the pLenti6-BTK-GFP-1Res-RFP and IKZF3-GFP-Ires-RFP Sensor Vectors
The bicistronic BTK-GFP-iresRFP construct is based on a pLenti6-DEST vector backbone where GFP was introduced into the unique Xho1 site downstream of the destination cassette (DEST) and RFP was cloned behind an internal ribosomal entry site (Ires).
In detail, the sensor construct was engineered by replacing NanoLuciferase (NLuc) by GFP and FireFly luciferase (FF) by RFP from pLenti6-DEST-NLuc-Ires-FF.
The pLenti6-DEST-NLuc-Ires-FF sensor construct was cloned by replacing eGFP from pLenti6-DEST-ires-eGFP with a synthesized stuffer element (encoding Ires-FF with FF flanked by two Nhe1 restriction sites) using blunt end cloning replacing Ires-eGFP between the two PmII. To enable C-terminal tagging with NanoLuciferase (NLuc), NLuc was amplified from pNL1.1 (Promega #N1001) using linker primers with Xho1 sites for ligating into linearized pLenti6-DEST-Ires-FF using Xho1 digest resulting in the construct pLenti6-DEST-NLuc-Ires-FF.
The pLenti6-DEST-NLuc-Ires-FF served as base vector for cloning pLenti6-DEST-GFP-Ires-RFP using Gibson assembly to replace FF with RFP and NLuc with GFP. In a first round FF was replaced by RFP by amplifying RFP from a template using the following Gibson assembly linker primers (Gibson-Nhe1 RFPfw, […]gctagc[…] (SEQ ID NO: 1); Gibson-Nhe1 RFP-Stoprev, […]ctagc[…] (SEQ ID NO: 2)) to clone into pLenti6-DEST-NLuc-Ires-FF digested with Nhe1 and gel-purified to remove the FF fragment. The resulting pLenti6-DEST-NLuc-Ires-RFP vector served as the template to replace NLuc with GFP by amplifying GFP from a template using following Gibson assembly linker primers (Gibson-Xho1 GFPfw, […]c[…] (SEQ ID NO: 3); Gibson-Xho1 GFP-Stoprev, […] (SEQ ID NO: 4)) to clone into pLenti6-DEST-NLuc-Ires-RFP digested with Xho1 and gel-purified to remove the NLuc fragment. All Gibson assembly reactions were performed with Gibson assembly Master Mix (New England Biolabs NEB E261 IL) according to manufacturer's manual, resulting in the destination vector pLenti6-DEST-GFP-Ires-RFP to allow Gateway cloning. To enable gateway cloning and C-terminal GFP tagging of BTK, the BTK open reading frame (ORF) was first shuttled from a pcDNA-DEST40-BTK vector (Invitrogen library ID INV_20090504v1) into pDONR221 (Invitrogen 12536-017) vector using a gateway BP reaction according to the manufacturer's manual (Invitrogen 11789-013) resulting in the novel construct pENTR221-BTK. For C-terminal tagging the STOP codon was mutated to a leucine performing a mutagenesis reaction with the following primers (pENTR221-BTK Quikchange STOP-Leu fw, gtcatggatgaagaatccTTGaacccagctttcttgtac; pENTR221-BTK Quikchange STOP-Leu REVC, gtacaagaaagctgggttCAAggattcttcatccatgac) using the QuikChange Lightning mutagenesis kit (Agilent Technologies #210518) according to the manufacturer's manual, resulting in pENTR221-BTK (STOP-Leu). […]

TMD8 cells = assay: Resazurin cell viability (proliferation) assay in TMD8 DLBCL cells; conditions: Homo sapiens, TMD8 cells (BTK dependent), 72 h, 50% growth inhibition vs vehicle, read-out: TMD8 Prol GI50
Description: as §1
(§2) Cell Viability Assay in DLBCL (Diffuse Large B-Cell Lymphoma) Cells:
(§3) The effect of the BTK compounds on cell proliferation was measured by a Resazurin (Sigma, #R7017) based cell viability assay. TMD8 (BTK compound sensitive) and OCI-LY3 (BTK compound insensitive) cells were incubated for 72 h at 37° C. and 5% CO2 with the corresponding compound, Resazurin is a non-toxic, cell-permeable substrate that is virtually non-fluorescent. Upon entering living cells, Resazurin (Sigma, #R7017) is reduced to highly fluorescent Resorufin. The metabolic activity was assessed by measuring the fluorescence signal (ex. 530 nm; em. 600 nm).
(§4) TMD8 and OCI-Ly3 cells were seeded at day 0 in triplicates at a cell density of 1×10^4 cells per 150 μl/well in a 96-well plate (Costar #3904). Additional plates were prepared, in order to assess the basal metabolic activity of both cell lines at the beginning of the experiment. For these reference plates, Resazurin (Sigma, #R7017) was added to a final concentration of 13 μg/ml 3 h post seeding and was incubated for 2 h at 37° C. and 5% CO2. Following incubation, the fluorescent signal intensity of the 96-well plates was measured on a Mithras LB940 multimode plate reader at 530/600 nm (Berthold Technologies, Germanyl).
(§5) In parallel, 3 h post-seeding, test-plates were treated with compound at various concentrations, or with vehicle (DMSO) alone for 3 days. The compound addition to the plates was performed by using a HP D300 digital dispenser (TECAN, Switzerland). The compounds were tested in triplicate, 8-point serial dilution (1:4), with a start concentration of 10 μM for OCI-LY3 and 1 μM for the TMD8 cells, respectively. To assess the relative proliferation of the cells, Resazurin was added to each well directly to the medium to a final concentration of 13 μg/ml. The plates were incubated for 2 h at 37° C. and 5% CO2 to result in a 72 h endpoint. Following incubation, the fluorescent signal intensity of the 96-well plates were measured on a Mithras LB940 multimode plate reader at 530/600 nm (Berthold Technologies, Germanyl). The formation of Resorufin dye directly correlates with the number of metabolically active cells. For each triplicate treatment the mean and standard deviation were calculated and analyzed via curve fitting software to determine the respective compound concentration resulting in 50% growth inhibition (GI50) values. For each compound GI50 values were typically determined from at least 2 entirely independent experiments.
TMD8 cells were acquired through a license agreement with Tokyo Medical and Dental University, Japan. Cells are cultivated in MEM Alpha (BioConcept, #1-23F01-1, lot. LB04262P) supplemented with 10% FCS (HyClone, GE #SH30066.03, lot AB3217603), 2 mM L-Glutamine (BioConcept, #5-10K50-H, lot. LA03467P), 1% Pen/Strep (BioConcept, #4-01F00-H, lot. LB04235P).

OCI-LY3 cells = assay: Resazurin cell viability (proliferation) assay in OCI-LY3 DLBCL cells; conditions: Homo sapiens, OCI-LY3 cells (BTK independent), 72 h, 50% growth inhibition vs vehicle, read-out: OCI-LY3 Prol GI50
Description: as §1, §2, §3, §4, §5
OCI-LY3 cells were acquired through a license agreement with University Health Network, Toronto, Canada. Cells are cultivated in RPM11640 media (Gibco, #61870-010, lot. 1894759), supplemented with 10% FCS (HyClone, GE #SH30066.03, lot AB217603), 2 mM L-Glutamine (BioConcept, #5-10K50-H, lot. LA03467P), 1 mM Sodium Pyruvate (BioConcept, #5-60F00-H, lot. LB10510P), 10 mM HEPES (Gibco, #15630-056, lot. 1854074), 1% Pen/Strep (BioConcept, #4-01F00-H, lot. LB04235P).

Row | DC50 (BTK-GFP) | BTK deg Amax (BTK-GFP) | GI50 (OCI-LY3 cells) | SMILES | GI50 (TMD8 cells)
1 | 0.8 nM | 1.8% | 3390 nM | COc1ccc(C(=O)N2CCC(CCN3CCC(OCc4ccc(-c5cc6c(-c7cc(F)cc(NC(=O)c8ccc(C(C)(C)O)cc8F)c7C)ncnc6[nH]5)cc4)CC3)CC2)cc1N1CCC(=O)NC1=O [Compound 13, N-(3-(6-(4-(((1-(2-(1-(3-(2,4-Dioxotetrahydropyrimidin-1(2H)-yl)-4-methoxybenzoyl)piperidin-4-yl)ethyl)piperidin-4-yl)oxyl)methyl)phenyl)-7H-pyrrolo[2,3-d]pyrimidin-4-yl)-5-fluoro-2-methylphenyl)-2-fluoro-4-(2-hydroxypropan-2-yl)benzamide] | 0.18 nM
2 | 2580 nM | 43.7% | > 10000 nM | COc1ccc(C(=O)NCCN2CC3(CCN(Cc4ccc(-c5cc6c(-c7cc(F)cc(NC(=O)c8ccc(C(C)(C)O)cc8F)c7C)ncnc6[nH]5)cc4)CC3)C2)cc1N1CCC(=O)NC1=O [Compound 52, N-(3-(6-(4-((2-(2-(3-(2,4-dioxotetrahydropyrimidin-1(2H)-yl)-4-methoxybenzamido)ethyl)-2,7-diazaspiro[3.5]nonan-7-yl)methyl)phenyl)-7H-pyrrolo[2,3-d]pyrimidin-4-yl)-5-fluoro-2-methylphenyl)-2-fluoro-4-(2-hydroxypropan-2-yl)benzamide] | 22.7 nM
3 | 22.2 nM | 5.9% | 4280 nM | COc1ccc(C(=O)N2CCC(C(=O)N3CCN(Cc4ccc(-c5cc6c(-c7cc(F)cc(NC(=O)c8ccc(C(C)(C)O)cc8F)c7C)ncnc6[nH]5)cc4)CC3)CC2)cc1N1CCC(=O)NC1=O [Compound 33, N-(3-(6-(4-((4-(1-(3-(2,4-dioxotetrahydropyrimidin-1(2H)-yl)-4-methoxybenzoyl)piperidine-4-carbonyl)piperazin-1-yl)methyl)phenyl)-7H-pyrrolo[2,3-d]pyrimidin-4-yl)-5-fluoro-2-methylphenyl)-2-fluoro-4-(2-hydroxypropan-2-yl)benzamide] | 3.97 nM
4 | 46.8 nM | 10.4% | > 10000 nM | COc1ccc(C(=O)N2CCC3(CCN(Cc4ccc(-c5cc6c(-c7cc(F)cc(NC(=O)c8ccc(C(C)(C)O)cc8F)c7C)ncnc6[nH]5)cc4)CC3CO)CC2)cc1N1CCC(=O)NC1=O (racemic) [Compound 23, rac-N-(3-(6-(4-((9-(3-(2,4-Dioxotetrahydropyrimidin-1(2H)-yl)-4-methoxybenzoyl)-1 (hydroxymethyl)-3,9-diazaspiro[5.5]undecan-3-yl)methyl)phenyl)-7H-pyrrolo[2,3-d]pyrimidin-4-yl)-5-fluoro-2-methylphenyl)-2-fluoro-4-(2-hydroxypropan-2-yl)benzamide] | 5.35 nM
5 | 0.9 nM | 1.8% | 4920 nM | COc1ccc(C(=O)N2CCC(OCCN3CCC(Oc4ccc(-c5cc6c(-c7cc(F)cc(NC(=O)c8ccc(C(C)(C)O)cc8F)c7C)ncnc6[nH]5)cc4)CC3)CC2)cc1N1CCC(=O)NC1=O [Compound 58, N-(3-(6-(4-((1-(2-((1-(3-(2,4-dioxotetrahydropyrimidin-1(2H)-yl)-4-methoxybenzoyl)piperidin-4-yl)oxy)ethyl)piperidin-4-yl)oxy)phenyl)-7H-pyrrolo[2,3-d]pyrimidin-4-yl)-5-fluoro-2-methylphenyl)-2-fluoro-4-(2-hydroxypropan-2-yl)benzamide] | 0.56 nM
6 | 26.2 nM | 4.2% | > 10000 nM | COc1ccc(C(=O)N2CCC3(CCN(Cc4ccc(-c5cc6c(-c7cc(F)cc(NC(=O)c8ccc(C(C)(C)O)cc8F)c7C)ncnc6[nH]5)cc4)CC3)C(CO)C2)cc1N1CCC(=O)NC1=O (racemic) [Compound 1, rac-N-(3-(6-(4-((9-(3-(2,4-Dioxotetrahydropyrimidin-1(2H)-yl)-4-methoxybenzoyl)-7-(hydroxymethyl)-3,9-diazaspiro[5.5]undecan-3-yl)methyl)phenyl)-7H-pyrrolo[2,3-d]pyrimidin-4-yl)-5-fluoro-2-methylphenyl)-2-fluoro-4-(2-hydroxypropan-2-yl)benzamide] | 3.89 nM
